Measurements taken from EP4818187A1, “COMPOUND AND USE THEREOF” (Ganzhou Hemay Pharmaceutical, Co., Ltd, priority 2023, dated 2025).

Assays:
Format in all cases: cell-based
[1] = system: NCI-N87 (human gastric cancer cell); assay: In vitro inhibitory effect against human tumor cells (MTT); settings: NCI-N87, 72 h, 3 days
[2] = system: NCI-H1975 (human non-small cell lung cancer); assay: as above; settings: NCI-H1975, 72 h, 3 days
[3] = system: HCT116 (human colorectal cancer); assay: as above; settings: HCT-116, 72 h, 3 days
[4] = system: SK-OV-3 (human ovarian cancer); assay: as above; settings: SK-OV-3, 72 h, SK-OV-3, MTT, 3 days
[5] = system: Fadu (human pharyngeal squamous cell carcinoma); assay: as above; settings: 72 h, 3 days
[6] = system: BxPC-3 (human pancreatic cancer in situ); assay: In vitro inhibitory effect against human tumor cells (MTT or SRB); settings: BXPC-3, 72 h, BxPC-3, test method printed MTT (head: SRB), 3 days
[7] = With addition of βGU (1 µg/well)

Which results are given for `CC[C@H](C)[C@@H]([C@@H](CC(=O)N1CCC[C@H]1[C@H](OC)[C@@H](C)C(=O)N[C@H](C)[C@@H](OCc1ccc(O[C@@H]2O[C@H](C(=O)[O-])[C@@H](O)[C@H](O)[C@H]2O)cc1OCc1cn(CCCCCC(=O)Nc2ccc(-c3ccc(/N=N/c4ccc5c(S(=O)(=O)[O-])cc(S(=O)(=O)[O-])c(N)c5c4O)c(C)c3)cc2C)nn1)c1ccccc1)OC)N(C)C(=O)[C@@H](NC(=O)[C@H](C(C)C)N(C)C)C(C)C.[Na+].[Na+].[Na+]` [Example compound 2]?
IC50 [1, 7]: 0.0056 µM; IC50 ([1]; βGU-free): 0.081 µM; IC50 [2, 7]: 0.0043 µM; IC50 ([2]; βGU-free): 0.114 µM; IC50 [3, 7]: 0.0061 µM; IC50 ([3]; βGU-free): 0.143 µM; IC50 [4, 7]: 0.0061 µM; IC50 ([4]; βGU-free): 0.211 µM; IC50 [5, 7]: 0.0027 µM; IC50 ([5]; βGU-free): 0.038 µM; IC50 [6, 7]: 0.0039 µM; IC50 ([6]; βGU-free): 0.043 µM
